Columns and labels:
[1] = test system: human ovarian cancer cell line OVCAR-3 xenografts; assay: OVCAR-3 xenograft growth inhibition in nude mice; assay type: in vivo; conditions: 80 mg/kg i.p. once daily
Procedure: (§1) All the procedures related to animal handling, care, and the treatment in the study were performed following guidelines approved by an Institutional Animal Care and Use Committee (IACUC) of Crown Bioscience, Inc. (Santa Clara, Calif., USA, a contract research organization we hired) based on the guidance of the Association for Assessment and Accreditation of Laboratory Animal Care (AAALAC). Animals were checked for any effects of tumor growth and drug treatment on normal behavior such as mobility, food and water consumption, body weight gain/loss (gross body weights were measured twice weekly), eye/hair matting, and any other abnormal effect. Death and observed clinical signs were recorded on the basis of the number of animals within each group. Individual animals with a tumor volume exceeding 3,000 mm^3 or animals of a group with a mean tumor volume exceeding 2,000 mm^3 were euthanized. In addition, animals showing signs of severe distress and/or pain, dropping body weight more than 20% from that at the start of treatment, or losing the capability of accessing adequate food or water were humanely sacrificed.
Each mouse was inoculated subcutaneously at the right flank with the LNCaP cells (1×10^7) in 0.1 ml of PBS for tumor development. When a mean tumor volume reached around 150 mm^3, the tumor-bearing mice were divided into homogeneous blocks based on their tumor volumes followed by a randomization of mice in each block into treatment groups (thus minimizing variations in tumor response to treatments due to the differential in initial mean tumor volumes). Each treatment group was consisted of 8 tumor-bearing mice. Vehicle (DMSO) or ITE in the vehicle at specified doses were administered to the mice by either i.p. (intraperitoneal) or p.o. (oral) injection once or twice daily for 28 continuous days as indicated.
Tumor volume was measured twice weekly in two dimensions using a caliper and the volume was calculated with a formula of: V=0.5 a×b^2, where a and b are the long and short diameter (in mm) of a tumor, respectively. The tumor volume was then used for calculations of both TGI (Tumor Growth Inhibition) and TGD (Tumor Growth Delay). The TGI was determined by: TGI=ΔT/ΔC×100%, where ΔT was a difference between the mean tumor volume at a specified day of observation and that at the day treatment starts (day 1) for a drug treated group whereas ΔC was the same difference measured for the control group. The TGD was calculated as: TGD=T−C, where T was the time (in days) required for tumors in a drug treated group to reach a predetermined mean tumor volume and C the time (in days) in the control group to reach the same volume. A tumor weight was derived by equating 1,000 mm^3 in volume to 1,000 mg in weight. A net body weight was then derived by subtracting a tumor weight from a corresponding gross body weight with the tumor.
Summary statistics, including mean and the standard error of the mean (SEM), are provided for the tumor volume of each group at each time point. Statistical analysis of difference in tumor volume among groups was conducted on a data set either at the best therapeutic time point or at the final dosing day as indicated. The tumor volume data were log-transformed and evaluated using a one-way ANOVA followed by Tukey's test when significance was observed. All data were analyzed using SPSS 16.0 and p<0.05 was considered to be statistically significant.
The culture and inoculation of human prostate cancer cell line LNCaP were as described in Example 1. The manipulation for human liver cancer cell line HepG2 (ATCC) was similar as that for LNCaP except that DMEM (instead of RPMI-1640) medium was used, the L-glutamine was not used, and 2×10^6 cells were used for inoculation into female nude mice. The handling of human ovarian cancer cell line OVCAR-3 (ATCC) was the same as that of LNCaP except that the DMEM medium was used and 5×10^6 cells were used for inoculation into female nude mice. […]

[2] = test system: human breast cancer cell line MCF-7 xenografts; assay: MCF-7 xenograft growth inhibition in nude mice; assay type: in vivo; conditions: 20 mg/kg i.p. once daily
Procedure: as §1, with “In addition, animals showing signs of severe distress and/or pain, dropping body weight more than 20% from that at the start of treatment, or losing the capability of accessing adequate food or water were humanely sacrificed.” left out
Tumor volume was measured twice weekly in two dimensions using a caliper and the volume was calculated with a formula of: V=0.5 a×b^2, where a and b are the long and short diameter (in mm) of a tumor, respectively. […] The TGD was calculated as: TGD=T−C, where T was the time (in days) required for tumors in a drug treated group to reach a predetermined mean tumor volume and C the time (in days) in the control group to reach the same volume. […]

## COC(=O)c1csc(C(=O)c2c[nH]c3ccccc23)n1 [ITE, 2-(1′H-indole-3′-carbonyl)-thiazole-4-carboxylic acid methyl ester]
[1]
  net body weight loss: no obvious net body weight loss
[1]; at a tumor volume of 800 mm^3
  TGD (Tumor Growth Delay): 10 days
[1]; day 33, TGI=ΔT/ΔC×100%
  TGI (Tumor Growth Inhibition): 47%
[2]; at a tumor volume of 500 mm^3
  TGD (Tumor Growth Delay): 3 days
[2]; day 19, TGI=ΔT/ΔC×100%
  TGI (Tumor Growth Inhibition): 71%

Source: patent US10632106B2, “Methods of cancer treatment with 2-(1′H-Indole-3′-carbonyl)-thiazole-4-carboxylic acid methyl ester” (Ariagen, Inc., priority 2009, dated 2020)
